{
  "source": "patent US11312940B2",
  "about": "“Progenitor cells and methods for preparing and using the same” (University of Louisville Research Foundation, Inc., priority 2015, dated 2022)",
  "molecules": {"B1": {"name": "prolactin (protein, UniProt P01236 29-227, looked up)", "Prolactin": "LPICPGGAARCQVTLRDLFDRAVVLSHYIHNLSSEMFSEFDKRYTHGRGFITKAINSCHTSSLATPEDKEQAQQMNQKDFLSLIVSILRSWNEPLYHLVTEVRGMQEAPEAILSKAVEIEEQTKRLLEGMELIVSQVHPETKENEIYPVWSGLPSLQMADEESRLSAYYNLLHCLRRDSHKIDNYLKLLKCRIIHNNNC", "notes": "pituitary sex hormone, purchased from ProSpec"}},
  "key": {"[1]": {"tested_on": "Sca-1+/Lin-/CD45+ cells (HSPCs)", "test": "In vivo BrdU incorporation into BM HSPCs", "set-up": "species or system mouse", "experimental": "(§1) Hormone treatment was performed for 10 days.\n(§2) All mAbs were added at saturating concentrations, and the cells were incubated for 30 minutes on ice, washed twice, and then resuspended for sorting in cell-sorting medium containing 1× Hank's Balanced Salt Solution without phenol red (GIBCO™, a division of Thermo Fisher Scientific Inc., Waltham, Mass.), 2% heat-inactivated fetal calf serum (GIBCO™), 10 mM HEPES buffer (GIBCO™), and 30 U/mL gentamicin (GIBCO™) at a concentration of 5×10^6 cells/mL. Sca-1^+/Lin^−/CD45^− cells (VSELs) and Sca-1^+/Lin^−/CD45^+ cells (HSCs) were isolated according to the gating and sorting strategy described in Zuba-Surma & Ratajczak, 2010 and Suszynska et al, 2014b. Proliferation events in BM-derived VSEL and HSC populations were examined by BrdU incorporation followed by flow cytometry.\n(§3) Adult C57BL/6 mice (4-8 weeks old; Jackson Laboratory) were intraperitoneally (i.p.) were injected daily with 1 mg of BrdU solution to evaluate whether SexHs affect proliferation of stem cells, and the final injection of BrdU was performed 1 hour before sacrificing the animals (see Grymula et al, 2014). […] Samples were analyzed with a Navios flow cytometer (Beckman Coulter)."}, "[2]": {"tested_on": "BM HSPCs", "test": "Total number of BM HSPCs by FACS after SexH administration", "type": "in vivo, mouse", "conditions": "male and female mice, 10-day administration", "experimental": "as §1, §2"}, "[3]": {"tested_on": "sublethally irradiated mice", "test": "Recovery of PB counts in sublethally irradiated mice", "type": "in vivo, mouse", "conditions": "650 cGy, injections for 10 days", "experimental": "Fifty microliters of PB was taken from the retro-orbital plexus of the mice and collected into microvette EDTA-coated tubes (Sarstedt AG & Co., Nümbrecht, Germany). Samples were run within 2 hours of collection on a HEMAVET® 950 hematology analyzer (Drew Scientific Inc., Oxford, Conn.) as described in Borkowska et al., 2014.\nBlood was collected on days 0, 3, 7, 14, 21, and 28, and white blood cell (WBC), platelet, red blood cells (RBC), and hematocrit were measured on a HEMAVET® instrument (HV950FS; Drew Scientific Inc.) as described in Borkowska et al, 2014. Experiments were performed twice (each time, n=5)."}, "[4]": {"tested_on": "Sca-1+/Lin-/CD45- cells (VSELs)", "test": "In vivo BrdU incorporation into BM VSELs", "set-up": "species or system mouse", "conditions": "for BrdU incorporation response of Sca-1+/Lin-/CD45- cells (ranking): 10-day administration", "experimental": "as §1, §2, §3"}, "[5]": {"tested_on": "BM VSELs", "test": "Total number of BM VSELs by FACS after SexH administration", "type": "in vivo, mouse", "conditions": "10-day administration; for increase in total number of VSELs/10^6 BMMNCs (ranking): female mice; for increase in total number of VSELs/10^6 BMMNCs: male BM", "experimental": "as §1, §2"}},
  "data": [
    {"molecule": "C#C[C@]1(O)CC[C@H]2[C@@H]3CCC4=Cc5oncc5C[C@]4(C)[C@H]3CC[C@@]21C", "note": "[danazol]", "values": [
      {"measurement": "increase in percentage of BrdU+ Sca-1+/Lin-/CD45+ cells (ranking)", "setting": "[1]; 10-day administration", "value": "highest increases"},
      {"measurement": "increase in BM HSPCs/10^6 BMMNCs (ranking)", "setting": "[2]", "value": "highest stimulatory effect"},
      {"measurement": "leucocyte counts", "setting": "[3]", "value": "statistically significant increase"},
      {"measurement": "BrdU incorporation response of Sca-1+/Lin-/CD45- cells (ranking)", "setting": "[4]; female and male cells", "value": "highest response"},
      {"measurement": "increase in total number of VSELs/10^6 BMMNCs (ranking)", "setting": "[5]", "value": "most effective"},
      {"measurement": "increase in total number of VSELs/10^6 BMMNCs", "setting": "[5]", "value": "about 2.5 fold"}
    ]},
    {"molecule": "C[C@]12CC[C@@H]3c4ccc(O)cc4CC[C@H]3[C@@H]1CC[C@@H]2O", "note": "[estrogen, estradiol]", "values": [
      {"measurement": "increase in total number of VSELs/10^6 BMMNCs", "setting": "[5]", "value": "about 2.5 fold"}
    ]},
    {"molecule": "CC(=O)[C@H]1CC[C@H]2[C@@H]3CCC4=CC(=O)CC[C@]4(C)[C@H]3CC[C@]12C", "note": "[progesterone]", "values": [
      {"measurement": "BrdU incorporation into Sca1+/Lin-/CD45+ HSPCs", "setting": "[1]; ovariectomized female mice", "value": "small increase in BrdU incorporation"},
      {"measurement": "BrdU incorporation in Sca-1+/Lin-/CD45- VSELs", "setting": "[4]; ovariectomized female mice", "value": "enhanced BrdU incorporation"}
    ]},
    {"molecule": "B1", "values": [
      {"measurement": "leucocyte counts", "setting": "[3]", "value": "statistically significant increase"},
      {"measurement": "BrdU incorporation response of Sca-1+/Lin-/CD45- cells (ranking)", "setting": "[4]; female cells", "value": "highest response"},
      {"measurement": "increase in total number of VSELs/10^6 BMMNCs (ranking)", "setting": "[5]", "value": "most effective"},
      {"measurement": "increase in total number of VSELs/10^6 BMMNCs", "setting": "[5]", "value": "about 2.5 fold"}
    ]}
  ]
}
